These results are taken from EP3658131B1, “COMPOSITION FOR THE TREATMENT OF BACTERIAL VAGINOSIS” (Farma-Derma S.R.L., priority 2017, dated 2019).

SMILES strings stand for the structures.

Common to all, as to type: cell-based
The subject of assay [1] is Lactobacillus Acidophilus ATCCC 4356. Kind of assay: Survival/growth of lactobacilli after incubation with the mixtures (Test 2). To be noted: 4 hours at 37°C. The protocol:
(§1) 3 different mixtures of substances were prepared whose composition is described below: − MD(5mg) + AL(90%,11mg) [formula] − DQC(8mg) [formula] − DQC(8mg) + MD(5mg) + AL(90%,11mg) [formula]
(§2) To evaluate the antibacterial efficacy of the ingredients in the three compositions described above, the pure raw materials directly dissolved in the culture medium were tested. Aliquots of the 3 mixtures were prepared for each of the bacterial strains being evaluated. Each mixture was placed in a receptacle containing a suitable volume of a peptone water solution with pH 5.5 having a concentration of the bacterial strain equal to at least 10^5 CFU/ml.
(§3) Each container was placed in incubation at 37°C for 4 hours to promote the dissolution and the action of the ingredients. A negative control was prepared for each strain i.e. a solution without the presence of the substances being tested, which is treated in the same experimental conditions as the receptacles containing the mixtures being tested.
(§4) At the end of the incubation period the contents of each container were neutralised and seeded in a suitable culture medium, the micro-organisms that had grown were counted. Each seeding was performed in triplicate.

Assay [2] has as its system Gardnerella vaginalis ATCC 11418 + Lactobacillus Acidophilus ATCCC 4356. Kind of assay: Survival/growth of lactobacilli in metabolic competition with a pathogenic strain (Test 2). As to conditions: for Reduction in microbial load with respect to the negative control: values only refer to the lactobacilli, negative value = growth. The protocol:
The selectivity of the compostion is verified by evaluating the survival ability of the Lactobacillus Acidophilus in the presence and absence of another bacterial strain in metabolic competition.
as §1, §2, §3, §4

For assay [3], the system named is Staphylococcus aureus ATCC 6538. Briefly: Reduction of microbial load after incubation with the mixtures (Test 2). To be noted: 4 hours at 37°C. The protocol: as §1, §2, §3, §4
Assay [4] deals with Escherichia coli ATCC 8739. Described as above. As to conditions: 4 hours at 37°C. The protocol:
as §1, §2, §3, §4

In assay [5] the test system is Gardnerella vaginalis ATCC 11418. The description is as above. As to conditions: 4 hours at 37°C. The protocol: as §1, §2, §3, §4
The subject of assay [6] is Prevotella loescheii ATCC 15930. Described as above. To be noted: 4 hours at 37°C. The protocol:
as §1, §2, §3, §4

[7] abbreviates: peptone water pH 5.5, at least 10^5 CFU/ml, mean of 3 replicates.

With `Cc1cc(N)c2ccccc2[n+]1CCCCCCCCCC[n+]1c(C)cc(N)c2ccccc21` [DQC, dequalinium chloride], the Microbial load in assay [1] (setting [7]) is 5,267 CFU/ml; in assay [2] (values only refer to the lactobacilli (selective media), 4 hours at 37°C, pH 5.5, mean of 3 replicates) it was 1,400 CFU/ml; in assay [3] (setting [7]), 14,267 CFU/ml; in assay [4] (setting [7]), 1,037,400 CFU/ml; in assay [5] (setting [7]), 4,205 CFU/ml; in assay [6] (setting [7]), 3,367 CFU/ml. The “Reduction in microbial load with respect to the negative control” value in assay [1] (peptone water pH 5.5, negative value = growth) worked out at 96.18%; in assay [2], 60.00%; in assay [2] (listed as dequalinium), 60.00%; in assay [3] (peptone water pH 5.5), 60.00%; in assay [4] (peptone water pH 5.5), 50.60%; in assay [5] (peptone water pH 5.5), 74.31%. Further, the “Reduction in microbial load with respect to the negative control” value in assay [6] (peptone water pH 5.5) stood at 90.56%.
